Experimental findings from patent publication US8628752B2, “Methods of identifying HSP90 inhibitors with less ocular toxicity” (Synta Pharmaceuticals Corp., priority 2011, dated 2014) are described below.

Each structure is given as a SMILES string. “Also recorded” adds a separate entry of the source.

In one data set the test system is photoreceptors. The data set can be described thus: Photoreceptor degeneration/apoptosis in rat eyes (H&E, TUNEL) after i.v. dosing.
The nature of data set [1]: Ocular adverse events in clinical studies with ganetespib. In kind it is in vivo, humans.
Data set [2] concerns retina. The data set can be described thus: Ganetespib 3-month toxicology study, ocular histopathology. In kind it is in vivo, cynomolgus monkeys. The settings on record: Monkeys (M + F), max. dose 7 mg/kg, 1 hour i.v. infusion, Days 1 & 15 of four 21-day cycles.
Data set [3] has as its system retina. The description is as above. The settings on record: SD rats (M + F), max. dose 100 mg/kg, 1 hour i.v. infusion, Days 1 & 15 of four 21-day cycles. In kind it is in vivo.
The subject of a further data set is HER2 in BT-474 cells. In words: HER2 degradation assay (anti-HER2 FITC flow cytometry). The data set is classed as cell-based. The settings on record: Homo sapiens, BT-474, 24 h, 24 h treatment. The procedure: HER2 positive cells were determined using anti-HER2 conjugated FITC (BD, 540553) according to manufacturer's instruction (BD Biosciences). 0.2×10^6 BT-474 cells were plated in 12-well culture plates in Dulbecco's Modified Eagle's Medium containing 10% fetal bovine serum and 1.5 g/L sodium bicarbonate. Cells were treated with the indicated compounds over a 10-1000 nM concentration range for 24 h. Cells were collected and stained with a FITC-conjugated anti-HER2 antibody for 30 min at room temperature. HER2-positive cells (fluorescence intensity) were determined by flow cytometry (excitation at 495 nm and emission at 529 nm) using a Becton Dickinson LSRII equipped with CellQuest Pro software. […]

The term IC50 denotes the point on the concentration scale where inhibition reaches its midpoint. Regarding `CC(C)c1cc(-c2n[nH]c(=O)n2-c2ccc3c(ccn3C)c2)c(O)cc1O` [Ganetespib, 3-(2,4-dihydroxy-5-isopropyl-phenyl)-4-(1-methyl-indol-5-yl)-5-hydroxy-[1,2,4]triazole], the Photoreceptor degeneration/apoptosis result in the data set on photoreceptors (SD rats, 20 mg/kg i.v.) is “(−) ((−) ≦20 cells/section)”. Moreover, the “Ocular toxicity / photoreceptor injury in rats (in words)” value with photoreceptors (rats, i.v., short-term studies) was “absence of ocular effects; also recorded: did not induce ocular toxicity”. Moreover, the “Severity of ocular toxicities in clinical studies (in words)” value in data set [1] (clinical studies with ganetespib) is given as “absence of severe common ocular toxicities”. For the same molecule, in data set [1] (n = 390, number (%)), the “Chromatopsia, all adverse events, Grade 1” value is on record as 1 (<1%); the “Chromatopsia, related adverse events, Grade 1” value was 1 (<1%); the “Difficulty with night vision, all adverse events, Grade 1” value is 1 (<1%); the “Vision blurred, all adverse events, Grade 1” value is 11 (3%). In data set [1] (n = 390, number (%)), the “Vision blurred, all adverse events, Grade 2” value is reported as 2 (<1%); the “Vision blurred, related adverse events, Grade 1” value is given as 4 (1%); the “Visual acuity reduced, all adverse events, Grade 1” value is 2 (<1%); the “Visual acuity reduced, related adverse events, Grade 1” value was 1 (<1%). Also, in data set [1] (n = 390, number (%)), the “Visual impairment, all adverse events, Grade 1” value is reported as 5 (1%) and the “Visual impairment, related adverse events, Grade 1” value was 2 (<1%). Further, the “Toxicity: exposure compared with human dose” value (SD rats, 20 mg/kg i.v., Cmax & AUCt > human dose) is on record as “Cmax & AUCt >”. The “Elimination from the retina (in words)” value (rats) is reported as “more rapidly eliminated from the retina”. For the setting “rats, 6 h post-dose”, the “Retina/plasma (R/P) ratio (in words)” value is recorded as “lower R/P ratios”. In addition, in the data set with retina [2], the Ocular histopathology evaluation result is “No changes”. For the same molecule, the Ocular histopathology evaluation result in the data set on retina [3] was “No changes”. This molecule also registered an IC50 in the data set with HER2 in BT-474 cells of 30 nM.
